What is called pKi is −log10 of the Ki, conventionally taken in molar units. The pIC50 is the IC50 on a negative log10 scale, so that one unit is a factor of ten.

For assay [1], the target named is T1, Cannabinoid receptor 2 (Homo sapiens, UniProt P34972). The note with it: HEK293, at 10 µM.
Description: Maximum displacement of human recombinant CB2 receptor expressed in HEK293 cell membranes at 10 uM incubated for 90 mins by radioligand binding assay
Assay [2] addresses T2, Cannabinoid receptor 1 (Homo sapiens, UniProt P21554). The assay is described as follows: Displacement of human recombinant CB1 receptor expressed in HEK293 cell membranes incubated for 90 mins by Cheng-Prusoff equation based analysis.
Assay [3] has as its target T2, Cannabinoid receptor 1. Put plainly: Displacement of human recombinant CB1 receptor expressed in HEK293 cell membranes incubated for 90 mins by radioligand binding assay. Format: cell-based.
The target in assay [4] is T2, Cannabinoid receptor 1. The note with it: HEK293, at 10 µM.
Description: Maximum displacement of human recombinant CB1 receptor expressed in HEK293 cell membranes at 10 uM incubated for 90 mins by radioligand binding assay
The subject of the next assay is HEK293. The assay is described as follows: Selectivity index, ratio of Ki for human recombinant CB1 receptor expressed in HEK293 cell membranes to Ki for human recombinant CB2 receptor expressed in HEK293 cell membranes. Format: cell-based.
In assay [5] the target is T1, Cannabinoid receptor 2. Put plainly: Displacement of human recombinant CB2 receptor expressed in HEK293 cell membranes incubated for 90 mins by radioligand binding assay. Format: cell-based.
Assay [6] has as its target T1, Cannabinoid receptor 2. The assay is described as follows: Displacement of human recombinant CB2 receptor expressed in HEK293 cell membranes incubated for 90 mins by Cheng-Prusoff equation based analysis.

The structures appear in SMILES notation. pIC50, pKi: −log10 of the molar value.

T2 sequence (P21554 whole entry): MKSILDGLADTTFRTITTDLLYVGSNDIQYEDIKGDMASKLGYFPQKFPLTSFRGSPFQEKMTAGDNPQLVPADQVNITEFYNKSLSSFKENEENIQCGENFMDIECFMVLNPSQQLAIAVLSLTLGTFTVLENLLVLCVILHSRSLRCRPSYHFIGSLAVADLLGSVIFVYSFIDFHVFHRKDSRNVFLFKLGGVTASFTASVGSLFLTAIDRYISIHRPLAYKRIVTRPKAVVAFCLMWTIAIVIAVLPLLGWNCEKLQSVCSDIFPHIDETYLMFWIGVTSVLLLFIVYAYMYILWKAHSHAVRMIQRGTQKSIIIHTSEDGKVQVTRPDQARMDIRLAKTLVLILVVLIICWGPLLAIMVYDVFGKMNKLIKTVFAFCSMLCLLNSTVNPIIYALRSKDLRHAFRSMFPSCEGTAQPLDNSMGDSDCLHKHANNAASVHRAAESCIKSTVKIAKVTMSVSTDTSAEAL
T1 sequence (P34972 whole entry): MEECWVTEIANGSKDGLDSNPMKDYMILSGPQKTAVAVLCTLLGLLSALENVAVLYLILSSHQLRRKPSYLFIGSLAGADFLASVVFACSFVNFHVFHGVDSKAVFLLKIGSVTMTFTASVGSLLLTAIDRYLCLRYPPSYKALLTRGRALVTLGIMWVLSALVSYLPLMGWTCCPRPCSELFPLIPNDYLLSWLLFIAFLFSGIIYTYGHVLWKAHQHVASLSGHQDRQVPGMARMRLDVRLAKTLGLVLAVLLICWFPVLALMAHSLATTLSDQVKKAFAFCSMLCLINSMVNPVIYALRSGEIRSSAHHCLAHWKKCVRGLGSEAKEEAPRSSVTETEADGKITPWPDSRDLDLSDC

Consider `CCOC(=O)CNC(=O)/C=C/C=C/c1ccc2c(c1)OCCO2`, for which the Imax on Cannabinoid receptor 2 [1] came out at 55.1%; on Cannabinoid receptor 1 [4] it was 4.77%. The pKi at Cannabinoid receptor 1 [2] was less than 5.00; at Cannabinoid receptor 2 [6] it was 5.59. Also, the figures for the pIC50 on Cannabinoid receptor 1 [3] and at Cannabinoid receptor 2 [5] were less than 5.00 and 5.01, respectively. Besides, in the assay on HEK293, the Ratio Ki was more than 3.9.

Regarding `O=C(/C=C/C=C/c1ccc2c(c1)OCCO2)NC1CC1`, the values for the Imax on Cannabinoid receptor 2 [1] and on Cannabinoid receptor 1 [4] were 26.5% and 6.18%, respectively. Also, the pKi on Cannabinoid receptor 1 [2] and at Cannabinoid receptor 2 [6] was less than 5.00 throughout. Moreover, the pIC50 at Cannabinoid receptor 1 [3] and on Cannabinoid receptor 2 [5] was less than 5.00 each time.

For the compound `CCS(=O)(=O)NCCCCCOc1ccc2c(c1)OCO2`, the Imax on Cannabinoid receptor 2 [1] was 29.5%; on Cannabinoid receptor 1 [4], 3.37%. Also, the pKi on Cannabinoid receptor 1 [2] and on Cannabinoid receptor 2 [6] was less than 5.00 in each case. The pIC50 at Cannabinoid receptor 1 [3] and on Cannabinoid receptor 2 [5] was less than 5.00 in each case.

With `NC(=O)NCCCCCOc1ccc2c(c1)OCO2`, the Imax was determined as 22.1% on Cannabinoid receptor 2 [1] and 2.39% at Cannabinoid receptor 1 [4]. For the same compound, the pKi on Cannabinoid receptor 1 [2] and at Cannabinoid receptor 2 [6] was less than 5.00 in each case. Further, the pIC50 at Cannabinoid receptor 1 [3] and at Cannabinoid receptor 2 [5] was less than 5.00 in each case.

`CCS(=O)(=O)NCCCCCSc1ccc2ccccc2c1`: the Imax is 63.3% at Cannabinoid receptor 2 [1] and 23.6% at Cannabinoid receptor 1 [4]. The results for the pKi at Cannabinoid receptor 1 [2] and at Cannabinoid receptor 2 [6] were less than 5.00 and 5.88, respectively. The pIC50 was less than 5.00 on Cannabinoid receptor 1 [3] and 5.30 on Cannabinoid receptor 2 [5]. In the assay on HEK293, the Ratio Ki was more than 7.58.

As to `CCNC(=O)NCCCCCOc1cccc2ccccc12`, the Imax at Cannabinoid receptor 2 [1] turned out to be 23.8%; at Cannabinoid receptor 1 [4] it was 18.5%. Moreover, the negative logarithm of the Ki (pKi) at Cannabinoid receptor 1 [2] and on Cannabinoid receptor 2 [6] was less than 5.00 in each case. Moreover, the pIC50 on Cannabinoid receptor 1 [3] and at Cannabinoid receptor 2 [5] was less than 5.00 in each case.

Take `O=C(CCCCCOc1cccc2ccccc12)NCCO`: the results for the Imax at Cannabinoid receptor 2 [1] and on Cannabinoid receptor 1 [4] were 14.8% and 27%, respectively. For the same compound, the pKi on Cannabinoid receptor 1 [2] and at Cannabinoid receptor 2 [6] was less than 5.00 in each case. In addition, the pIC50 on Cannabinoid receptor 1 [3] and at Cannabinoid receptor 2 [5] was less than 5.00 in each case.

In the case of `CCS(=O)(=O)NCCCCCOc1ccc2ccccc2c1`, the Imax came out at 23.7% at Cannabinoid receptor 2 [1] and 11.9% at Cannabinoid receptor 1 [4]. For the same compound, the pKi at Cannabinoid receptor 1 [2] and on Cannabinoid receptor 2 [6] was less than 5.00 throughout. Moreover, the pIC50 at Cannabinoid receptor 1 [3] and on Cannabinoid receptor 2 [5] was less than 5.00 each time.

For the compound `CCOC(=O)CNC(=O)/C=C/C=C/c1ccc2ccccc2c1`, the Imax at Cannabinoid receptor 2 [1] was found to be 48.5%; on Cannabinoid receptor 1 [4], 2.24%. The pKi at Cannabinoid receptor 1 [2] and at Cannabinoid receptor 2 [6] was less than 5.00 throughout. For the same compound, the pIC50 at Cannabinoid receptor 1 [3] and at Cannabinoid receptor 2 [5] was less than 5.00 throughout.

With `CCS(=O)(=O)NCCCCCOc1cccc2ccccc12`, the results for the Imax at Cannabinoid receptor 2 [1] and on Cannabinoid receptor 1 [4] were 30.9% and 7.86%, respectively. Besides, the pKi at Cannabinoid receptor 1 [2] and at Cannabinoid receptor 2 [6] was less than 5.00 throughout. In addition, the pIC50 on Cannabinoid receptor 1 [3] and at Cannabinoid receptor 2 [5] was less than 5.00 each time.

Take `CCOC(=O)CNC(=O)/C=C/C=C/c1ccc2c(c1)-c1ccccc1C2`: the values for the Imax at Cannabinoid receptor 2 [1] and on Cannabinoid receptor 1 [4] were 39.1% and 5.47%, respectively. Further, the pKi at Cannabinoid receptor 1 [2] and on Cannabinoid receptor 2 [6] was less than 5.00 each time. The pIC50 on Cannabinoid receptor 1 [3] and at Cannabinoid receptor 2 [5] was less than 5.00 throughout.

On to `O=C(CCCCCOc1ccc2ccccc2c1)NCCO`, for which the Imax came out at 3.6% on Cannabinoid receptor 2 [1] and 3.65% at Cannabinoid receptor 1 [4]. Further, the pKi on Cannabinoid receptor 1 [2] and at Cannabinoid receptor 2 [6] was less than 5.00 in each case. Further, the pIC50 at Cannabinoid receptor 1 [3] and on Cannabinoid receptor 2 [5] was less than 5.00 throughout.

As for `CCNC(=O)NCCCCCOc1ccc2ccccc2c1`, the Imax at Cannabinoid receptor 2 [1] was 27.1%; at Cannabinoid receptor 1 [4], 9.27%. For the same compound, the negative logarithm of the Ki (pKi) on Cannabinoid receptor 1 [2] and at Cannabinoid receptor 2 [6] was less than 5.00 each time. In addition, the pIC50 on Cannabinoid receptor 1 [3] and at Cannabinoid receptor 2 [5] was less than 5.00 each time.

`CCCC(C)(C)c1ccc2c(c1)OC(C)(C)[C@@H]1CC=C(C)C[C@@H]21`: the Imax on Cannabinoid receptor 2 [1] is 50%; at Cannabinoid receptor 1 [4] it was less than 50%. The negative logarithm of the Ki (pKi) is less than 5.00 on Cannabinoid receptor 1 [2] and 6.85 at Cannabinoid receptor 2 [6]. Moreover, the pIC50 at Cannabinoid receptor 1 [3] is less than 5.00; at Cannabinoid receptor 2 [5], 6.26. For the same compound, the Ratio Ki in the assay with HEK293 is more than 71.4.

For the compound `CC1(Cc2ccccc2)COc2cc(C(=O)N3CCCCC3)ccc21` (centres undefined), the pKi at Cannabinoid receptor 1 [2] was less than 5.00. The log(ratioKi) in the assay with HEK293 was found to be 1.37.

`O=C(CCCCCOc1cccc2ccccc12)NC1CC1`: the Imax at Cannabinoid receptor 2 [1] was 27.8%; at Cannabinoid receptor 1 [4], 24.7%. Also, the pKi on Cannabinoid receptor 1 [2] and at Cannabinoid receptor 2 [6] was less than 5.00 in each case. Moreover, the pIC50 at Cannabinoid receptor 1 [3] and at Cannabinoid receptor 2 [5] was less than 5.00 in each case.

As for `O=C(/C=C/C=C/c1ccc2ccccc2c1)NCCO`, the Imax is 54.6% at Cannabinoid receptor 2 [1] and 4.91% on Cannabinoid receptor 1 [4]. In addition, the pKi was less than 5.00 at Cannabinoid receptor 1 [2] and 5.90 on Cannabinoid receptor 2 [6]. For the same compound, the pIC50 at Cannabinoid receptor 1 [3] is less than 5.00; at Cannabinoid receptor 2 [5], 5.32. Moreover, in the assay with HEK293, the Ratio Ki was more than 7.87.

Regarding `O=C(/C=C/C=C/c1ccc2c(c1)-c1ccccc1C2)NC1CC1`, the Imax on Cannabinoid receptor 2 [1] was 36.1%; on Cannabinoid receptor 1 [4], 13.6%. Further, the pKi on Cannabinoid receptor 1 [2] and on Cannabinoid receptor 2 [6] was less than 5.00 each time. Moreover, the negative-log IC50 (pIC50) on Cannabinoid receptor 1 [3] and on Cannabinoid receptor 2 [5] was less than 5.00 in each case.

Regarding `CCNC(=O)NCCCCCSc1ccc2ccccc2c1`, the Imax at Cannabinoid receptor 2 [1] is 68.2%; on Cannabinoid receptor 1 [4], 16.9%. In addition, the pKi was less than 5.00 on Cannabinoid receptor 1 [2] and 6.25 at Cannabinoid receptor 2 [6]. Moreover, the pIC50 on Cannabinoid receptor 1 [3] is less than 5.00; at Cannabinoid receptor 2 [5], 5.68. The Ratio Ki in the assay with HEK293 is more than 17.9. The log(ratioKi) in the assay with HEK293 is 1.3.

On to `O=C(/C=C/C=C/c1ccc2c(c1)-c1ccccc1C2)NCCO`, for which the Imax was determined as 24.2% at Cannabinoid receptor 2 [1] and 0% at Cannabinoid receptor 1 [4]. For the same compound, the pKi on Cannabinoid receptor 1 [2] and at Cannabinoid receptor 2 [6] was less than 5.00 throughout. Besides, the pIC50 on Cannabinoid receptor 1 [3] and on Cannabinoid receptor 2 [5] was less than 5.00 throughout.

Regarding `O=C(/C=C/C=C/c1ccc2ccccc2c1)NC1CC1`, the Imax at Cannabinoid receptor 2 [1] is 58.5%; on Cannabinoid receptor 1 [4] it was 18.5%. Also, the values for the negative-log Ki (pKi) on Cannabinoid receptor 1 [2] and on Cannabinoid receptor 2 [6] were less than 5.00 and 6.09, respectively. In addition, the results for the pIC50 at Cannabinoid receptor 1 [3] and at Cannabinoid receptor 2 [5] were less than 5.00 and 5.52, respectively. The Ratio Ki with HEK293 is more than 12.2.

As for `O=C(CCCCCOc1ccc2ccccc2c1)NC1CC1`, the figures for the Imax at Cannabinoid receptor 2 [1] and on Cannabinoid receptor 1 [4] were 31.4% and 44.8%, respectively. The pKi at Cannabinoid receptor 1 [2] and on Cannabinoid receptor 2 [6] was less than 5.00 throughout. Moreover, the pIC50 at Cannabinoid receptor 1 [3] and on Cannabinoid receptor 2 [5] was less than 5.00 each time.

`CCNC(=O)NCCCCCOc1ccc2c(c1)OCO2`: the results for the Imax at Cannabinoid receptor 2 [1] and at Cannabinoid receptor 1 [4] were 22.6% and 3.38%, respectively. Moreover, the pKi on Cannabinoid receptor 1 [2] and at Cannabinoid receptor 2 [6] was less than 5.00 each time. For the same compound, the negative logarithm of the IC50 (pIC50) at Cannabinoid receptor 1 [3] and at Cannabinoid receptor 2 [5] was less than 5.00 in each case.

`CCOC(=O)CNC(=O)CCCCCOc1ccc2ccccc2c1`: the Imax at Cannabinoid receptor 2 [1] was found to be 25.5%; at Cannabinoid receptor 1 [4], 6.46%. In addition, the pKi on Cannabinoid receptor 1 [2] and at Cannabinoid receptor 2 [6] was less than 5.00 each time. In addition, the pIC50 at Cannabinoid receptor 1 [3] and at Cannabinoid receptor 2 [5] was less than 5.00 in each case.

With `NC(=O)NCCCCCOc1cccc2ccccc12`, the Imax on Cannabinoid receptor 2 [1] came out at 4.6%; at Cannabinoid receptor 1 [4] it was 6.88%. The negative-log Ki (pKi) on Cannabinoid receptor 1 [2] and on Cannabinoid receptor 2 [6] was less than 5.00 each time. In addition, the pIC50 on Cannabinoid receptor 1 [3] and at Cannabinoid receptor 2 [5] was less than 5.00 each time.

Take `CCOC(=O)CNC(=O)CCCCCOc1cccc2ccccc12`: the Imax stood at 0% on Cannabinoid receptor 2 [1] and 27.7% at Cannabinoid receptor 1 [4]. Further, the negative logarithm of the Ki (pKi) at Cannabinoid receptor 1 [2] and on Cannabinoid receptor 2 [6] was less than 5.00 throughout. Also, the pIC50 at Cannabinoid receptor 1 [3] and on Cannabinoid receptor 2 [5] was less than 5.00 throughout.

The values above are taken from ChEMBL document CHEMBL3596121, “Naphthalene and 2,3-dihydrobenzo[b][1,4]dioxine derivatives with extended side chains as new scaffolds of CB2-selective ligands” (Medchemcomm, 2014).
